In the OPERA property sets (Mansouri et al. 2018):
Where a SMILES comes first, the peptide text is derived from it.

Compound `COC(=O)NC(=O)Cn1c(C)nc2ccccc2c1=O` has a logP of 0.4.
Work on `Cc1nc2c3c(c(C(=O)N(C)C)cn2c1C)CCC(c1ccccc1)O3` (centres undefined) yielded a logP of 3.3.
For `O=C1c2ccccc2-c2nnc(-c3ccccc3O)cc21`, the logP was 3.15.
For `Cc1ccccc1-n1nnnc1N`, the logP was 0.93.
`COc1ccc(CCNCC(O)CON=C(C2CC2)C2CC2)cc1OC` (centres undefined) gave a logP of 2.42.
In the case of `COC(=O)C1=C(C)NC(C)=C(C(=O)OCC=Cc2ccccc2)C1c1cccc([N+](=O)[O-])c1` (centres undefined), the logP is reported as 5.69.
Work on `Cc1oc2ccc3c(C)cc(=O)[nH]c3c2c1C` yielded a logP of 3.18.
In the case of `c1ccc2c(c1)Cc1ncccc1-2`, the logP is reported as 2.59.
`C=CC(=O)OCCCOC(=O)C=C` showed a logP of 0.87.
In the case of `O=C(O)c1ccccc1C(c1ccc(O)cc1)c1ccc(O)cc1`, the logP is reported as 2.61.
`Cc1cc2cc3c(C)cc(=O)oc3cc2o1` gave a logP of 2.82.
In the case of `CCCCON=C(C)c1cccc(Oc2nc(OC)cc(OC)n2)c1C(=O)OC`, the logP is reported as 4.11.
`c1ccc(N2CCN(CCn3nnc4ccccc43)CC2)cc1` showed a logP of 2.74.
Work on `NC(Cc1c[nH]c2ccccc12)C(=O)NC(Cc1c[nH]c2ccccc12)C(=O)NC(Cc1c[nH]c2ccccc12)C(=O)O` (stereo not drawn) (H-Trp-Trp-Trp-OH; configuration not given here) yielded a logP of 0.66.
With `O=c1cc(CBr)oc(Br)c1O` the logP was 1.27.
`Cc1c(C)c2ccc3occ(C)c3c2oc1=O` showed a logP of 3.34.
`Cc1cccc(C)c1-c1cnc[nH]1` showed a logP of 2.38.
For `NS(=O)(=O)c1ncncc1-c1ccccc1`, the logP was 0.5.
For `CCCCCCCCNCCO`, the logP was 2.75.
Compound `CS(=O)(=O)CC(=O)C=NO` has a logP of -0.69.
With `Cc1cc2c(ccc3c(C)cc(=O)n(C)c32)o1` the logP was 3.08.
Compound `Nc1nnc(-c2cccc(Cl)c2Cl)c(N)n1` has a logP of 2.57.
`CC(C)C(Nc1ccc([N+](=O)[O-])cc1[N+](=O)[O-])C(=O)O` (centres undefined) gave a logP of 2.88.
Compound `O=C1c2ccccc2-c2nnccc21` has a logP of 1.22.
For `CCC(C)NCc1cccc(S(=O)(=O)c2csc(S(N)(=O)=O)c2)c1` (centres undefined), the logP was 2.13.
With `COC(=O)C1=C(C)NC(C)=C(C(=O)OC)C1c1cccc2c1OCO2` the logP was 3.46.
For `O=C(Cn1cnc([N+](=O)[O-])n1)NCCCO`, the logP was -1.27.
Work on `CC1CN(CC2CN=C(N)O2)CC(C)O1` (centres undefined) yielded a logP of 0.16.
Work on `CC(C)CNC(=O)N1C(=O)N(C)CC1O` (centres undefined) yielded a logP of 1.32.
`O=C1c2ccccc2-c2nnc(C(F)(F)F)cc21` gave a logP of 2.21.
`OCC1OC(n2cnc3c(Nc4ccccc4)ncnc32)C(O)C1O` (centres undefined) showed a logP of 1.28.
`COC(=O)c1c(Oc2nc(OC)cc(OC)n2)cccc1C(C)=NOCCCl` showed a logP of 3.23.
`CCCc1c2c(cc3c(=O)cc(C(=O)O)oc13)CCCC2` gave a logP of 4.2.
Work on `c1ccc(CCCCNc2[nH]cnc3ncnc2-3)cc1` yielded a logP of 3.29.
With `CCc1cccc2nc(N)nc(N)c12` the logP was 1.69.
With `Cc1nc2ccccc2c(=O)n1CC(=O)N1CCOCC1` the logP was 0.36.
Compound `c1ccc(CN2CCN(CCn3nc4ccccc4n3)CC2)cc1` has a logP of 3.3.
In the case of `Cc1nc2c3c(c(C(=O)NC4CC4)cn2c1C)CCC(c1ccccc1)O3` (centres undefined), the logP is reported as 4.
`CCN(CC)c1ccc(-n2c(C(F)(F)F)nn(C)c2=S)cn1` showed a logP of 3.14.
Work on `CNC1=NS(=O)N=C1NCCSCc1ccc(CN(C)C)o1` (centres undefined) yielded a logP of 0.89.
`O=C1c2cc(Cl)ccc2OCN1CCO[N+](=O)[O-]` showed a logP of 2.3.
`c1cc2cc3c(cc2cn1)OCO3` showed a logP of 1.75.
In the case of `CC(C)CC(N)C(=O)N1CCCC1C(=O)NC(CC(C)C)C(=O)NC(CC(C)C)C(=O)O` (centres undefined) (H-LPLL-OH; configuration not given here), the logP is reported as -0.92.
For `NC1=NCC(COc2ccccc2[N+](=O)[O-])O1` (centres undefined), the logP was 0.8.
For `CSCCC(N)C(=O)NC(Cc1c[nH]c2ccccc12)C(=O)O` (centres undefined), the logP was -1.5.
`CC(C)(C)N=O` gave a logP of 0.91.
Compound `CC(C)C1(C)N=C(c2ncc3ccccc3c2C(=O)O)NC1=O` (centres undefined) has a logP of 1.81.
`CC(C)OC(=O)CC(C(=O)OC(C)C)S(=O)(=O)c1ccc([N+](=O)[O-])cc1` (centres undefined) showed a logP of 2.18.
Compound `CNC=C1c2cccc(O)c2C(=O)c2c(O)cccc21` has a logP of 3.55.
Compound `CCC(C)C(NC(=O)C(C)N)C(=O)O` (centres undefined) has a logP of -2.6.
`CC(C)c1cc(=S)ss1` gave a logP of 2.75.
Compound `O=c1ssc(-c2ccccc2)c1-c1ccccc1` has a logP of 4.07.
`Cc1ccc(C)c(Cc2cnc[nH]2)c1` gave a logP of 2.72.
Work on `NC(Cc1ccccc1)C(=O)NC(Cc1ccccc1)C(=O)NC(Cc1ccccc1)C(=O)O` (stereo not drawn) (H-Phe-Phe-Phe-OH; configuration not given here) yielded a logP of -0.02.
Compound `CCCCN1CCCC1CNC(=O)c1cc(S(N)(=O)=O)cc2c1OC(C)C2` (centres undefined) has a logP of 2.8.
Work on `CCC(C)C(NC(=O)C(N)Cc1ccc(O)cc1)C(=O)NC(CC(C)C)C(=O)NCC(=O)O` (centres undefined) (H-YILG-OH; configuration not given here) yielded a logP of -1.49.
In the case of `CCNc1nc(N)nc(O)n1`, the logP is reported as 1.08.
For `CC(C)C1(C)N=C(c2ncc(Br)cc2C(=O)O)NC1=O` (centres undefined), the logP was 1.19.
Work on `Cc1nc2c3c(c(C(=O)N4CC(O)C4)cn2c1C)CCC(c1ccccc1)O3` (centres undefined) yielded a logP of 3.1.
With `Clc1cc(Cl)c2c(oc3cccc(Cl)c32)c1Cl` the logP was 5.89.
`CCOC(=O)C1=C(C)NC(C)=C(C(=O)OC)C1c1ccccc1` (centres undefined) showed a logP of 4.14.
`CC(C)NCC(O)COc1ccc(-c2nc(-c3cccs3)c[nH]2)cc1` (centres undefined) showed a logP of 3.2.
In the case of `CCC(CC)C(=O)NS(=O)(=O)c1ccc(C(F)(F)F)cc1[N+](=O)[O-]`, the logP is reported as 3.57.
Work on `Cc1ccc(C(=O)OCCCn2ccc(=O)c(O)c2C)cc1` yielded a logP of 1.79.
`O=C1c2ccccc2-c2nnc(-c3ccccc3[N+](=O)[O-])cc21` showed a logP of 2.64.
`CCCCc1c(O)c(=O)cc(C)n1C` showed a logP of 0.9.
`CC(C)(C)[N+]([O-])=Cc1cc[n+]([O-])cc1` gave a logP of -1.05.
`CON(C)C(=O)c1cn2c(C)c(C)nc2c2c1CCC(c1ccccc1)O2` (centres undefined) showed a logP of 3.6.
Work on `CCCCC(=O)OCC(=O)C1(O)Cc2c(O)c3c(c(O)c2C(OC2CC(N)C(O)C(C)O2)C1)C(=O)c1c(OC)cccc1C3=O` (centres undefined) yielded a logP of 2.56.
`Cc1cc2c(ccc3c(C)c(C)c(=O)n(C)c32)o1` showed a logP of 3.54.
With `OC(CCCN1CCC(C(O)(c2ccccc2)c2ccccc2)CC1)c1ccccc1` (centres undefined) the logP was 3.9.
With `Clc1cc(Cl)c2c(c1)Oc1cc(Cl)c(Cl)c(Cl)c1O2` the logP was 6.4.
`c1ccc(Cn2cnc3ccccc32)cc1` gave a logP of 2.91.
Work on `N#Cc1[nH]cc(-c2ccc(Cl)cc2)c1N1CCOCC1` yielded a logP of 3.5.
Work on `Cc1c(C)c2cc3c(C)coc3c(C)c2oc1=O` yielded a logP of 3.62.
Compound `Cn1c([N+](=O)[O-])cnc1C1=NOC2CCCCC12` (centres undefined) has a logP of 2.22.
Work on `C[C@@H]1N=C(c2ccccc2Cl)c2cc([N+](=O)[O-])ccc2NC1=O` yielded a logP of 2.72.
In the case of `CC(=O)OCCCOC(=O)C(C)c1cccc(C(=O)c2ccccc2)c1` (centres undefined), the logP is reported as 3.6.
Work on `CCC(C)C(N)C(=O)NC(Cc1ccc(O)cc1)C(=O)NC(C(=O)NC(C(=O)O)C(C)C)C(C)CC` (centres undefined) (H-IYIV-OH; configuration not given here) yielded a logP of -1.09.
Compound `Cc1oc2cc3oc(=O)ccc3c(C)c2c1C` has a logP of 3.27.
With `COC(=O)C(C)(C)S(=O)(=O)c1ccc([N+](=O)[O-])cc1` the logP was 1.38.
Work on `O=c1[nH]c2cc(Cl)ccc2c(O)c1-c1ccccc1` yielded a logP of 3.5.
`C=Cn1c([N+](=O)[O-])cnc1C=Cc1ccc(C(=O)O)cc1` showed a logP of 2.68.
For `CC1(C)C2Cc3ssc(=S)c3C1C2` (centres undefined), the logP was 3.7.
Compound `CC(=O)Nc1ccc(/C=C/c2n[nH]c(=O)cc2C)cc1` has a logP of 1.27.
With `CC(C)(C)[N+]([O-])=Cc1ccc([N+](=O)[O-])cc1` the logP was 1.4.
For `Nc1nnnn1-c1ccc(F)cc1`, the logP was 0.75.
With `CCCC(=NOCC)C1=C(O)CC2(CCC(CC)CC2)OC1=O` (centres undefined) the logP was 4.47.
Compound `CCOc1ccc(-n2nnnc2N)cc1` has a logP of 1.32.
